ChEMBL document CHEMBL3351799, “Bioavailable pyrrolo-benzo-1,4-diazines as Na(v)1.7 sodium channel blockers for the treatment of pain” (Bioorg Med Chem Lett, 2014)

Columns and labels:
[1] = Drug level in Sprague-Dawley rat brain after 6 hrs; type: ADME, tissue-based; details: read-out: Drug uptake
in vivo [2] = details: Sprague-Dawley, rat, brain/plasma
in vivo [3] = details: Sprague-Dawley, rat, plasma

Q: With `COc1ccc2c(c1)NC1(CCN(C(=O)c3ccc(OC)c(N(C)C)c3)CC1)c1cccn1-2` as the compound, how does the concentration at 6 h [1] read?
A: The concentration at 6 h was 257 ng/g.

Q: And the Kp at 6 h (in vivo [2])?
A: Its Kp at 6 h is 0.2.

Q: What about the AUC at 6 h (in vivo [3]) of the same compound?
A: The AUC at 6 h was 20.3 µM·h.

Q: Which AUC at 6 h (in vivo [3]) does the source give for `COc1ccc2c(c1)NC1(CCN(C(=O)c3cccc4ncccc34)CC1)c1cccn1-2` here?
A: The AUC at 6 h was 16.2 µM·h.
